Laboratory results published in publication PMC9367672, “In vitro differences in toddalolactone metabolism in various species and its effect on cytochrome P450 expression” (Pharmaceutical Biology, 2022).

Tests used:
[1] = Metabolic stability assessment in dog liver microsomes; type: in vitro ADME; conditions: beagle, pH 7.4, DLMs, CYP incubation system, toddalolactone 20 μM, 0-90 min, read-out: half-life value (T1/2)
Procedure: (§1) The CYP reaction system (200 μL) consisted of 0.1 M potassium phosphate buffer (pH 7.4), an NADPH-generating system (1 mM NADPH, 10 mM G-6-P, 1 unit/mL G-6-PD, 4 mM MgCl2), and liver microsomes or recombinant human microsomes (supersomes). Each of the in vitro enzymatic assays using liver microsomes was linear with respect to incubation time and amount of protein. After a pre-incubation at 37 °C for 3 min, the reactions were initiated by adding NADP^+. After incubating for 60 min, the reactions were quenched by adding 200 μL of ice-cold acetonitrile. Samples were centrifuged at 18,000 g for 15 min at 4 °C and 10 μL of supernatant was analyzed using an HPLC system. […]
(§2) In the UGT reaction system, liver microsomes were incubated in 200 μL of the reaction system containing 4 mM UDPGA, 5 mM MgCl2, 20 µg/mL alamethicin, and 50 mM Tris-HCl buffer (pH 7.4). […] After centrifugation at 18,000 g for 15 min, 10 μL of the supernatant was analyzed by HPLC.
(§3) Toddalolactone (20 μM) was incubated with different liver microsomes, including HLMs, DLMs, PLMs, MLMs, RAMs, RLMs or MIMs in oxidative metabolism and glucuronidation reaction systems. […] The mixtures were centrifuged at 18,000 g for 15 min at 4 °C and then 10 μL of the supernatant was analyzed by HPLC. […]
(§4) The peak areas of toddalolactone and its metabolites were detected using a HPLC system (Shimadzu, Kyoto, Japan). […]

[2] = Metabolic stability assessment in rabbit liver microsomes; type: in vitro ADME; conditions: pH 7.4, RAMs, toddalolactone 20 μM, 0-90 min
Procedure: as §1, §2, §3, §4

[3] = Metabolic stability assessment in rat liver microsomes; type: in vitro ADME; conditions: pH 7.4, RLMs, toddalolactone 20 μM, 0-90 min
Procedure: as §1, §2, §3, §4

[4] = tested on: CYP1A1; assay: Western blot of CYP1A1 protein expression in HepG2 cells; type: cell-based; conditions: 50 μM, 24 h, vs control (0 μM), p < 0.05
Procedure: Hep G2 cells were seeded into 100 mm Petri dishes and treated with different concentrations of toddalolactone (0, 10 and 50 µmol/L) for 24 h. Total protein was extracted using RIPA lysis buffer containing proteinase inhibitor (BestBio, Shanghai, China). After the protein concentration was measured using a bicinchoninic acid (BCA) assay kit (Beyotime, Shanghai, China), samples were electrophoretically transferred to polyvinylidene difluoride (PVDF) membranes. After blocking with TTBS (0.5% Tween 20, 10 mM Tris-HCl, pH 7.5, 150 mM NaCl) containing 5% non-fat milk for 1 h at room temperature, the membrane was incubated with antibodies against β-Actin, CYP1A1, and CYP3A5 overnight at 4 °C. Then, membranes were washed with TBS (10 mM Tris-HCl, pH 7.5, 150 mM NaCl) containing 0.05% Tween 20 three times and further incubated with HRP-conjugated secondary antibodies against rabbit (for β-actin, CYP1A1 and CYP3A5) for 1 h at room temperature.

[5] = CYP incubation system, read-out: half-life value (T1/2)
[6] = UGT incubation system, read-out: T1/2 value

## COc1cc2oc(=O)ccc2c(OC)c1C[C@@H](O)C(C)(C)O [toddalolactone]
[1]
  half-life at 20 μM: 8.23 ± 0.7 h
[2]; [5]
  half-life at 20 μM: 6.78 ± 0.517 h
[2]; [6]
  half-life at 20 μM: 2.07 ± 0.138 h
[3]; [5]
  half-life at 20 μM: 6.37 ± 0.283 h
[3]; [6]
  half-life at 20 μM: 2.15 ± 0.197 h
[4]
  induction of CYP1A1 protein expression higher than that of the control: approximately 50%
